Experimental data published in patent publication US7122314B2, “Methods for detecting vancomycin-resistant microorganisms and compositions therefor” (ID Biomedical Corporation, priority 2002, dated 2006).

Tests used:
[1] = test system: VanA phenotype enterococci; conditions: inducible resistance; cited from earlier work
vanA and vanB genes = assay: Non-isotopic CPT-EIA VRE screen of enterococcal isolates; conditions: threshold 0.14 OD650; 27 isolates, five operators
Description: This following example describes a rapid single probe non-isotopic CPT assay for screening dual VRE genes (vanA and vanB) from Enterococcal isolates. The non-isotopic VRE assay, which combines CPT with an enzyme immunoassay (CPT-EIA), is schematically illustrated in FIG. 2. Because of the lack of homology between the vanA and vanB genes, it was not possible to find a common sequence that was suitable for a perfectly complementary CPT chimeric probe. It was necessary to design a probe that had two mismatches to vanA in the 5′ DNA arm and two mismatches to vanB in the 3′ DNA arm. In spite of the mismatches, the probe worked well to discriminate vanA and vanB from vanC and VSE isolates.
The dual detection single chimeric probe specific for detecting vanA and vanB genes are synthesized, fluoresceinated and biotinylated as described in Example 1. The purified thermostable RNase H is prepared as described in Example 3.
The sources of Enterococcal isolates and growth conditions are as described in Example 2. Lysis
The cells are lysed by placing a 1-μL loopful of culture growth in 50 μL of Lysis Reagent. […]
After cycling, 3 drops (˜100 μL) of Cycle Stop Reagent containing sheep polyclonal antifluorescein-horseradish peroxidase (HRP) conjugate and 0.16% SDS in Peroxidase Stabilizing Buffer (DAKO, Mississauga, ON) is added to the cycling reaction. […] The plate is read with a Vmax plate reader at OD650. […]

CN[C@H](CC(C)C)C(=O)N[C@H]1C(=O)N[C@@H](CC(N)=O)C(=O)N[C@H]2C(=O)N[C@H]3C(=O)N[C@H](C(=O)N[C@H](C(=O)O)c4cc(O)cc(O)c4-c4cc3ccc4O)[C@H](O)c3ccc(c(Cl)c3)Oc3cc2cc(c3O[C@@H]2O[C@H](CO)[C@@H](O)[C@H](O)[C@H]2O[C@H]2C[C@](C)(N)[C@H](O)[C@H](C)O2)Oc2ccc(cc2Cl)[C@H]1O [vancomycin]
MIC [1]: ≥ 64 µg/mL

5′-CAT GAT GTG TCG GTa aaa TCT GCA ATA GAG A-3′ (DNA CATGATGTGTCGGTAAAATCTGCAATAGAGA; scissile link, further chemistry not given here) [vanB110-m3]
sensitivity (vanA and vanB genes): 98.7% | specificity (vanA and vanB genes): 100%

teicoplanin
MIC [1]: ≥ 16 µg/mL
